What was measured:
[1] = target: T1, ENaC (Epithelial Sodium Channel) (Mus musculus, UniProt Q61180+Q9WU38+Q9WU39); experiment: Ussing Chamber assay (short circuit current, amiloride sensitive I_SC); format: cell-based; settings: Mouse kidney M-1 cells, apical application, 37° C.
T1 construct: Mouse kidney M-1 cells were cultivated in DMEM; endogenous in cells; host or cells: mouse kidney M-1 cells (cortical collecting duct line), no transfection mentioned
T1 sequence (Q61180 1-699): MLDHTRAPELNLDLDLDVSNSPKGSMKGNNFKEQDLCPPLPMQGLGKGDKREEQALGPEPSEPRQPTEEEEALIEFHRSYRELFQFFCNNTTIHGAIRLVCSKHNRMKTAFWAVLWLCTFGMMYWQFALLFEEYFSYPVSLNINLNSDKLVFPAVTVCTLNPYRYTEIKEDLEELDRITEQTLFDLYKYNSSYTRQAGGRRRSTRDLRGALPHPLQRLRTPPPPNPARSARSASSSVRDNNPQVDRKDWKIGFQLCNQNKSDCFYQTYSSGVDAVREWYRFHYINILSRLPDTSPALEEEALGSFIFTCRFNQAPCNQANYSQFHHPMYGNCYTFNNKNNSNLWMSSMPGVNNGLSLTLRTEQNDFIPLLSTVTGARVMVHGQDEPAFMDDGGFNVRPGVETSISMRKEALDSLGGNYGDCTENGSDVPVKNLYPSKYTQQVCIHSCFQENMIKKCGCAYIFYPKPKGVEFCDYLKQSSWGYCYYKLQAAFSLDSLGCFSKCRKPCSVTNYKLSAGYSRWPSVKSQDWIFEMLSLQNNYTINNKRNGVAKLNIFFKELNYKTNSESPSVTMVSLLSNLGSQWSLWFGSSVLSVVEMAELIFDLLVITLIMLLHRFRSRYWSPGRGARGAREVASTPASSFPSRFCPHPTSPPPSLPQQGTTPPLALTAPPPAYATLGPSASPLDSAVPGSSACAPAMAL
T1 sequence (Q9WU38 1-638): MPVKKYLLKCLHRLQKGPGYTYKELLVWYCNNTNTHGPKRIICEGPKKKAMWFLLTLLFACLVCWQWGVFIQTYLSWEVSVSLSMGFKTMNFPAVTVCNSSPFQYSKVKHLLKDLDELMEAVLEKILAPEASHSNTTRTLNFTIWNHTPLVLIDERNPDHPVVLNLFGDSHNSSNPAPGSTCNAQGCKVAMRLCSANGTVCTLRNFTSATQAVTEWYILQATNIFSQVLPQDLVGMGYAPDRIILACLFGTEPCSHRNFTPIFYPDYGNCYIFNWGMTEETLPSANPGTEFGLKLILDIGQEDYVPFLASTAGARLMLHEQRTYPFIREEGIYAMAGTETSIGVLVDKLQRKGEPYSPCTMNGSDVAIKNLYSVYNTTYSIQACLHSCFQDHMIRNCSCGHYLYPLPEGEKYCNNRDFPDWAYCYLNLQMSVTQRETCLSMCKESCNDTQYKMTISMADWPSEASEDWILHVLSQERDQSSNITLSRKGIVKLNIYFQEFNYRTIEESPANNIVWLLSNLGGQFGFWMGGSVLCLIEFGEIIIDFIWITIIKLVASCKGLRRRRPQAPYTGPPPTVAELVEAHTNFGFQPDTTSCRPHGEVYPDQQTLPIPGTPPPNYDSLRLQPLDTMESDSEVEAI
T1 sequence (Q9WU39 1-655): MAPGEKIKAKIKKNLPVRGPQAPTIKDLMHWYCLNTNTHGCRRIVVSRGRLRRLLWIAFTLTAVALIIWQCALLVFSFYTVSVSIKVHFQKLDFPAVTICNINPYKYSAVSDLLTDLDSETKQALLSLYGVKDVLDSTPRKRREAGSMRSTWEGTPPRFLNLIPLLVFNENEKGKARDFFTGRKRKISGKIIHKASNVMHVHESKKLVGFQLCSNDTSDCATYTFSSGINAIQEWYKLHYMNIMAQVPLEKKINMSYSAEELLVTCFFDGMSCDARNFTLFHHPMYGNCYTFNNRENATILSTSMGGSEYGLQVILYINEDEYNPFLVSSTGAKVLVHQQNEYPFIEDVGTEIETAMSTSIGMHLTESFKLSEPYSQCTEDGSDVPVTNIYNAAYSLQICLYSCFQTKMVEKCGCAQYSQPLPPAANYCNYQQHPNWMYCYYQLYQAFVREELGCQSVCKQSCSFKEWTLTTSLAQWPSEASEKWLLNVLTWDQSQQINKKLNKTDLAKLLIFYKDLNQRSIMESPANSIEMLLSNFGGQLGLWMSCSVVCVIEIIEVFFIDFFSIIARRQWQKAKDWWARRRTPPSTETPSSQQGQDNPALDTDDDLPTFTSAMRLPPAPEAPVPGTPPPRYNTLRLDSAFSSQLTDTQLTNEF
Description: The IC50 values of the example compounds given above were determined in the Ussing Chamber assay. Ussing Chamber: Mouse kidney M-1 cells were cultivated in DMEM containing 5% FCS and 5 μM dexamethasone for 10 to 12 days on polyester transwell filters. Filters were inserted into a teflon-coated well-plate which fit into the ussing chamber system. Prior to measurement the medium of M-1 cells was replaced with Caco-2 transport buffer (Invitrogen, Germany). During measurements, the Ussing chamber temperature was kept at 37° C. Short circuit currents (I_sc) were measured in the voltage-clamp mode with the software package Lab View for data acquisition and analysis. The transepithelial electrical resistance (TEER) was determined by the application of voltage steps of ±5 mV every 5 sec. Compounds were administered at a final concentration of 3 μM or at increasing concentrations (1-3-10 μM) to the apical solution. At the end of each experiment the amiloride sensitive I_SC was measured by adding 3 μM amiloride to the apical compartment. Results are expressed as inhibition in percent of the amiloride effect or as IC50.

[2] = Permeability in CALU-3 cells; format: in vitro ADME; settings: human, CALU-3 monolayers, pH 7.4, 37° C., 10 μM compound; for Papp A→B at 90 min, 10 μM: apical-to-basal; for Papp B→A at 90 min, 10 μM: basal-to-apical
Description: Permeability measurements across polarized, confluent CALU-3 cell monolayers grown on permeable filter supports are used to provide information on the potential of a compound to pass the lung epithelium. Apparent permeability coefficients (Papp) of the compounds across the CALU-3 cell monolayers are measured (pH 7.4, 37° C.) in apical-to-basal (AB) and basal-to-apical (BA) transport direction. […] CALU-3 cells (1-2×10^5 cells/1 cm^2 area) are seeded on filter inserts (Costar transwell polycarbonate filters, 0.4 μm pore size) and cultured (for 10-12 days DMEM) until tight monolayers are formed. Compounds of interest are dissolved in appropriate solvent (DMSO, 10 mM stock solution). Stock solutions are diluted with HTP-4 buffer (128.13 mM NaCl, 5.36 mM KCl, 1 mM MgSO4, 1.8 mM CaCl2, 4.17 mM NaHCO3, 1.19 mM Na2HPO4×7H2O, 0.41 mM NaH2PO4×H2O, 15 mM HEPES, 20 mM glucose, 0.25% BSA, pH 7.4) to prepare the transport solutions (10 μM compound, final DMSO<=0.5%). The transport solution (TL) is applied to the apical or basolateral donor side for measuring A-B or B-A permeability (3 filter replicates), respectively. The receiver side contains the same buffer as the donor side. After 30 min of accommodation, samples are collected at the start t0=0 min and at the end of the experiment tn=90 min from the donor and at 0, 30, 60, and 90 min also from the receiver chamber. Volume removed is replenished by HTP-4 buffer. The compound concentration in the samples is measured by HPLC-MS/MS or scintillation counting. The permeability coefficient (Papp) and efflux ratio are calculated according to: Papp [cm/s]=(concentration receiver [nM]*volume receiver [mL]/time interval [sec])*(1/filter area)*(1/donor concentration [nM]).

| SMILES | IC50 [1] [nM] | Papp A→B at 90 min, 10 μM [2] [nm/s] | Papp B→A at 90 min, 10 μM [2] [nm/s] |
| --- | --- | --- | --- |
| CC[n+]1c(CNC(=O)c2nc(Cl)cnc2N)n(C[C@@H]2CCCO2)c2cc(OCC(=O)N3CC[S+]([O-])CC3)ccc21.O=C([O-])C(F)(F)F [Example 1.01] | 10 | 8 | 3 |
| CC[n+]1c(CNC(=O)c2nc(Cl)cnc2N)n(CCO)c2cc(OCC(=O)NCc3ccc(P(C)(C)=O)cc3)ccc21.O=C([O-])C(F)(F)F [Example 1.02] | 10 | 6 | 3 |
| CCn1c(CNC(=O)c2nc(Cl)cnc2N)[n+](CC2CCOCC2)c2ccc(OCC(=O)N(Cc3nc(C)ccc3[O-])C[C@H](C)O)cc21.O=C(O)C(F)(F)F.O=C(O)C(F)(F)F [Example 1.03] | 8 | 4 | 1 |
| CCn1c(CNC(=O)c2nc(Cl)cnc2N)[n+](CC)c2ccc(OCC(=O)NCCCN)cc21.O=C(O)C(F)(F)F.O=C([O-])C(F)(F)F [Example 2.01] | – | 2 | 5 |
| CCn1c(CNC(=O)c2nc(Cl)cnc2N)[n+](CC)c2ccc(OCC(=O)NCCNC)cc21 [Example 2.02] | 2 | – | – |
| CCn1c(CNC(=O)c2nc(Cl)cnc2N)[n+](CC)c2ccc(OCC(=O)N3CCC(N)CC3)cc21 [Example 2.03] | 1 | – | – |
| CCn1c(CNC(=O)c2nc(Cl)cnc2N)[n+](CC)c2ccc(OCC(=O)NCCOCP(C)(C)=O)cc21.O=C([O-])C(F)(F)F [Example 2.04] | 3 | < 7 | 4 |
| CCn1c(CNC(=O)c2nc(Cl)cnc2N)[n+](CC)c2ccc(OCC(=O)N(Cc3nc(C)ccc3O)C[C@H](C)O)cc21.O=C([O-])C(F)(F)F [Example 2.05] | 3 | 4 | 1 |
| CCn1c(CNC(=O)c2nc(Cl)cnc2N)[n+](CC)c2ccc(OCC(=O)NCCN(C)C)cc21.O=C[O-] [Example 2.06] | 1 | < 10 | 2 |
